Results: patent US7175844B2, “Methods of modulating fibrosis” (Joslin Diabetes Center, Inc., priority 2000, dated 2007)
Where two headings read alike, the source gives them in different places.

Columns and labels:
[1] = tested on: VEGF-induced CTGF mRNA expression; assay: Effect on VEGF-induced CTGF mRNA expression in BREC; format: cell-based, bovine
Procedure: (§1) H) Northern Blot Analysis—Total RNA was isolated using acid-guanidinium thiocyanate, and Northern blot analysis was performed. Total RNA (20 μg) was electrophoresed through 1% formaldehyde-agarose gels and then transferred to a nylon membrane. ^32P-Labeled cDNA probes were generated by use of labeling kits (Megaprime DNA labeling systems, Amersham Pharmacia Biotech). After ultraviolet cross-linking using a UV cross-linker (Stratagene, La Jolla, Calif.), blots were pre-hybridized, hybridized, and washed in 0.5×SSC, 5% SDS at 65° C. with 4 changes over 1 h. All signals were analyzed using a PhosphorImager, and lane loading differences were normalized.
(§2) I) Analysis of CTGF mRNA Half-life—CTGF mRNA half-life experiments were carried out using BREC and BRPC. […] Transcription was inhibited by the addition of actinomycin D (5 μg/ml).

[2] = tested on: VEGF-induced CTGF mRNA expression; assay: Effect on VEGF-induced CTGF mRNA expression in BRPC; format: cell-based, bovine; settings: for effect on VEGF-induced CTGF mRNA expression: pretreatment GF 109203X 1 μM or PD98059 20 μM
Procedure: as §1, §2

CTGF mRNA [3] = assay: CTGF mRNA expression by Northern blot analysis in BREC; format: cell-based, bovine; settings: for CTGF mRNA levels increase (comparative study): VEGF 25 ng/ml, TGF-β1 10 ng/ml
Procedure: (§3) Since BREC and BRPC may express both KDR and Flt1, we examined the effects of P1GF, a Flt1-specific ligand, on the induction of CTGF gene expression in vascular cells.
(§4) B) Cell Culture—Primary cultures of bovine retinal endothelial cells (BREC) and pericytes (BRPC) were isolated by homogenization and a series of filtration steps as described previously. BREC were subsequently cultured with endothelial cell basal medium supplemented with 10% plasma-derived horse serum, 50 mg/liter heparin, and 50 μg/ml endothelial cell growth factor. BRPC were cultured in Dulbecco's modified Eagle's medium with 5.5 mM glucose and 20% fetal bovine serum. Cells were cultured in 5% CO2 at 37° C., and media were changed every 3 days. Cells were characterized for their homogeneity by immunoreactivity with anti-factor VIII antibody for BREC and with monoclonal antibody 3G5 for BRPC. […] Only cells from passages 2 through 7 were used for the experiments.
as §1

CTGF protein [4] = assay: CTGF protein expression by Western blot analysis in BREC; format: cell-based, bovine; settings: for CTGF protein expression increase: VEGF 25 ng/ml, TGF-β1 10 ng/ml
Procedure: (§5) E) Western Blot Analysis—Immunoprecipitated proteins or 30 μg of total cell lysates were subjected to SDS-gel electrophoresis and electrotransferred to nitrocellulose membrane (Bio-Rad). The membrane was soaked in blocking buffer (phosphate-buffered saline containing 0.1% Tween 20 and 5% bovine serum albumin) for 1 h at room temperature and incubated with primary antibody overnight at 4° C. followed by incubation with horseradish peroxidase-conjugated secondary antibody (Amersham Pharmacia Biotech). Visualization was performed using the enhanced chemiluminescence detection system (ECL, Amersham Pharmacia Biotech) per the manufacturer's instructions.

CTGF mRNA [5] = assay: CTGF mRNA expression by Northern blot analysis in BRPC; format: cell-based, bovine; settings: for CTGF mRNA levels, maximum increase: 25 ng/ml, after 9 h
Procedure: as §3, §4, §1

Akt = tested on: Akt
Procedure: as §5

CTGF protein [6] = settings: BRPC, 25 ng/ml, after 10 h
Procedure: as §5

Erk = tested on: Erk
Procedure: as §5

KDR = molecular target: T1, KDR (Bos taurus, UniProt A0AAA9SPC9); assay: Immunoblot of KDR immunoprecipitates from BREC (phosphotyrosine, PI3-kinase p85); format: cell-based, bovine
T1 construct: endogenous in cells; host or cells: primary bovine retinal endothelial cells (BREC)
T1 sequence (A0AAA9SPC9 20-1356): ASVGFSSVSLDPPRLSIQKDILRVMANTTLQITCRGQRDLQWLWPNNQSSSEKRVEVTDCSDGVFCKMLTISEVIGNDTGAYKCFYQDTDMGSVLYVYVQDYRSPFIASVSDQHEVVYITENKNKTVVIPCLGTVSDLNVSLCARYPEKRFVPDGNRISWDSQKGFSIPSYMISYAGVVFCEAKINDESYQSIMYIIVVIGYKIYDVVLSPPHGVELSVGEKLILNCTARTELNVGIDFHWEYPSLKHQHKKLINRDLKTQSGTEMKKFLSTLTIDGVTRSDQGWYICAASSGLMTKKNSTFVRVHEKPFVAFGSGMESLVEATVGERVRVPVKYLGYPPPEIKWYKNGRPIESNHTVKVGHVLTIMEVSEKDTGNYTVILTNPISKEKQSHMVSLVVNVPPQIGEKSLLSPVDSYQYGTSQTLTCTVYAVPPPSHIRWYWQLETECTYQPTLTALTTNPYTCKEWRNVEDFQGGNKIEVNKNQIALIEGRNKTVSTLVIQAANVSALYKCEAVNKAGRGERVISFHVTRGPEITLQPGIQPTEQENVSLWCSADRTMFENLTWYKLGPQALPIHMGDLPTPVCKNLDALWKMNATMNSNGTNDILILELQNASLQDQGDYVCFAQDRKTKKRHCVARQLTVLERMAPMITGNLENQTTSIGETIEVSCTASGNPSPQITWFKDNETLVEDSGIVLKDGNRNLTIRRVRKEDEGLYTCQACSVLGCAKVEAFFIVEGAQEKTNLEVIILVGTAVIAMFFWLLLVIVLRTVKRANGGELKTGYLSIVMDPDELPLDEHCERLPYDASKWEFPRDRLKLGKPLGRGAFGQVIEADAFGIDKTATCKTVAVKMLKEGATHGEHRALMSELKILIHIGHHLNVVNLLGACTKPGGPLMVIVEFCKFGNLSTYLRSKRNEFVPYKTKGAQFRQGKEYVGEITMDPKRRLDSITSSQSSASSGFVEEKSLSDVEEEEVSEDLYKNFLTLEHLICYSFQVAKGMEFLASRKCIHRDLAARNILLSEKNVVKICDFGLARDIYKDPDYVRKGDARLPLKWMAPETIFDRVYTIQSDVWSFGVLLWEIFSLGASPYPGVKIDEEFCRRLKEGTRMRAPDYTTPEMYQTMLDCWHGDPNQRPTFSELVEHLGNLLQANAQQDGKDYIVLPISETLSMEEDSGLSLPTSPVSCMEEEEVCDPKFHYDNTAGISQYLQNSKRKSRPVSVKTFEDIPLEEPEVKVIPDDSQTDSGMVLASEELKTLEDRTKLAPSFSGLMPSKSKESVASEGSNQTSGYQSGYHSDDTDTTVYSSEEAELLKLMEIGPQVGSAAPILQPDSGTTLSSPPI
Procedure: (§6) D) Immunoprecipitation—Cells were washed three times with cold phosphate-buffered saline and solubilized in 200 μl of lysis buffer (1% Triton X-100, 50 mmol/liter HEPES, 10 mmol/liter EDTA, 10 mmol/liter sodium pyrophosphate, 100 mmol/liter sodium fluoride, 1 mmol/liter sodium orthovanadate, 1 μg/ml aprotinin, 1 μg/ml leupeptin, and 2 mmol/liter phenylmethylsulfonyl fluoride). After centrifugation at 12,000 rpm for 10 min, 1.0 mg of protein was subjected to immunoprecipitation. To clear the protein extract, protein A-Sepharose (20 μl of a 50% suspension) was added to the cell lysates, after which they were incubated for 1 h, followed by centrifugation and collection of the supernatant. A specific rabbit anti-KDR or Flt1 antibody was added and rocked at 4° C. for 2 h; 20 μl of protein A-Sepharose was then added, and the sample was rocked for another 2 h at 4° C. For denaturation, protein A-Sepharose antigen-antibody conjugates were separated by centrifugation, washed five times, and boiled for 3 min in Laemmli sample buffer.
as §5

Flt1 [7] = molecular target: T2, Flt1 (Bos taurus, UniProt F1MDD9); assay: Immunoblot of Flt1 immunoprecipitates from BRPC (phosphotyrosine, PI3-kinase p85); format: cell-based, bovine
T2 construct: endogenous in cells; host or cells: primary bovine retinal pericytes (BRPC)
T2 sequence (F1MDD9 1-1251): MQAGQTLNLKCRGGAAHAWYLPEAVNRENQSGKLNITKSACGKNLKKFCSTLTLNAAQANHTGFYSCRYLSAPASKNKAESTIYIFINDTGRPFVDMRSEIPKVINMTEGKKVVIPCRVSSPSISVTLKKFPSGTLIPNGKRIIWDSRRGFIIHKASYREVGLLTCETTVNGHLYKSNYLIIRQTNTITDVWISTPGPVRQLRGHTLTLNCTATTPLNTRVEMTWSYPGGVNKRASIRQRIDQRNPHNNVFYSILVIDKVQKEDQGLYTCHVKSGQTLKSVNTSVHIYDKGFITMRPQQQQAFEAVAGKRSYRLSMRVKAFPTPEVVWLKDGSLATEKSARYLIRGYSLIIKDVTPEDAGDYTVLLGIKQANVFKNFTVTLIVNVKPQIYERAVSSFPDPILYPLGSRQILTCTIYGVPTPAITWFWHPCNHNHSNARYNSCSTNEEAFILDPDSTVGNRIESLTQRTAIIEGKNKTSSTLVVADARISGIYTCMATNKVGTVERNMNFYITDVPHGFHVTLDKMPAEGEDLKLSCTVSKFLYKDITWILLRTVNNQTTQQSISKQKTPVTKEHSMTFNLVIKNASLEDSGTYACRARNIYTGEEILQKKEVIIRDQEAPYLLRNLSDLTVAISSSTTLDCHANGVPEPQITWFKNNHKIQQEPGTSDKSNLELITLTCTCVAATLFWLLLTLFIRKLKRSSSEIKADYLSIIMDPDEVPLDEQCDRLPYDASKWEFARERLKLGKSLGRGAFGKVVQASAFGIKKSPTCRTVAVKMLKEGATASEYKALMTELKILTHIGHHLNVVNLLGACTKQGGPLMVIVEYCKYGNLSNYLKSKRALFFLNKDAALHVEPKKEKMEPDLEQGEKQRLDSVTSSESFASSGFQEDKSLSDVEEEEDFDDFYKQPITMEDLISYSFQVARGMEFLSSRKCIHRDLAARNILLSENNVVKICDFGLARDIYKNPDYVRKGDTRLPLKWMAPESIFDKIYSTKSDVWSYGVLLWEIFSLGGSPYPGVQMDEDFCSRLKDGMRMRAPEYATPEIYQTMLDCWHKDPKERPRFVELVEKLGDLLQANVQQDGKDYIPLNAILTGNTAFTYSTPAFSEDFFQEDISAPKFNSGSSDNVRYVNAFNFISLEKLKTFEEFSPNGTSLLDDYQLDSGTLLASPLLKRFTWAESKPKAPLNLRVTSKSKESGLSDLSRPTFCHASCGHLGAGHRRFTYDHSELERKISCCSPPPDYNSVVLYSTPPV
Procedure: as §6

Flt1 [8] = molecular target: Flt1 (Homo sapiens, UniProt P17948); settings: known value; cited from earlier work
Flt1 (Homo sapiens, UniProt P17948), sequence (P17948 27-1338, species assumed): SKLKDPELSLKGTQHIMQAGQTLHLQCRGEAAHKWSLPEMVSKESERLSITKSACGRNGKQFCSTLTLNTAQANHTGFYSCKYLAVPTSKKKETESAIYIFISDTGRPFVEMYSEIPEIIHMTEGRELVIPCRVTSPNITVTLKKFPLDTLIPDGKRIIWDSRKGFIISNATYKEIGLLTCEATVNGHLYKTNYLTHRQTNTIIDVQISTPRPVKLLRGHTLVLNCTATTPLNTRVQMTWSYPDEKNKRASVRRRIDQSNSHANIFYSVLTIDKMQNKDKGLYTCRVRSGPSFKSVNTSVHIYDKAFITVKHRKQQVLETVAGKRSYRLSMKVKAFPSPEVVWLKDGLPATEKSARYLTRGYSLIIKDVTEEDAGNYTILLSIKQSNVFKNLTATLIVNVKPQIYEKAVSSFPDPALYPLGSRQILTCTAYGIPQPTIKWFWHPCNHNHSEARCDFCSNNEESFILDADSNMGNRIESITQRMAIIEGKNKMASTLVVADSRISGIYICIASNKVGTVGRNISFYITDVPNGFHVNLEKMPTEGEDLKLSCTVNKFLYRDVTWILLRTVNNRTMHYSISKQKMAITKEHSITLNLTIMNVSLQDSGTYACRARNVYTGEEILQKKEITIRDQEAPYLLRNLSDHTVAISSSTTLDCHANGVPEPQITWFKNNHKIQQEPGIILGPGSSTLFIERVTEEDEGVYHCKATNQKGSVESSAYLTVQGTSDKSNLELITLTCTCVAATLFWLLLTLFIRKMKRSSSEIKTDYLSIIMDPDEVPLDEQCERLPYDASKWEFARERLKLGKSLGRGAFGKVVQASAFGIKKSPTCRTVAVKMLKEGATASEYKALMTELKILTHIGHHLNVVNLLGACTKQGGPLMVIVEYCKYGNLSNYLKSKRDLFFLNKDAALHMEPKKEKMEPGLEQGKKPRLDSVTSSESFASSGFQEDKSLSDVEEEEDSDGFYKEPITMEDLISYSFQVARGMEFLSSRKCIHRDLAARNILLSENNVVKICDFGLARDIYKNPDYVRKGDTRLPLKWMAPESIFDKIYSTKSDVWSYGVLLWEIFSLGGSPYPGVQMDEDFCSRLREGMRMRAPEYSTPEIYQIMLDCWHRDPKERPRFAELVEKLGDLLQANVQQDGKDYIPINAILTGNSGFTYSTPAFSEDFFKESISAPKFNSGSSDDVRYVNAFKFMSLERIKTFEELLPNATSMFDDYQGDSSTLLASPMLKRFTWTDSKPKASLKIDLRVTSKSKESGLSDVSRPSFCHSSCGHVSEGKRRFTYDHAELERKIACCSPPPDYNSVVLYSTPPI

Flt1 (VEGFR1) (bovine) = assay: cell-based or functional assay
[9] = molecular target: KDR/Flk1 (VEGFR2) (bovine); assay: cell-based or functional assay
[10] = cycloheximide 10 μg/ml, VEGF 25 ng/ml, 6 h
[11] = inhibitor pretreatment (wortmannin 100 nM), VEGF 25 ng/ml 6 h
[12] = VEGF 25 ng/ml + cycloheximide 10 μg/ml, 6 h

Molecule: C[C@@H]1C[C@@H]([C@H](O)CC2CC(=O)NC(=O)C2)C(=O)[C@@H](C)C1 [Cycloheximide, cycloheximide]
- effect on VEGF-induced increase of CTGF mRNA [1, 10]: did not prevent
- effect on VEGF-induced increase of CTGF mRNA [2, 10]: did not prevent

Molecule: CN(C)CCCn1cc(C2=C(c3c[nH]c4ccccc34)C(=O)NC2=O)c2ccccc21 [GF 109203X]
- effect on VEGF-induced CTGF mRNA expression ([1]; pretreatment GF 109203X 1 μM or PD98059 20 μM, VEGF 25 ng/ml 6 h): Neither GF 109203X nor PD98059 had significant effects
- effect on VEGF-induced CTGF mRNA expression ([2]; VEGF 25 ng/ml 6 h): Neither GF 109203X nor PD98059 had significant effects

Molecule: COc1cccc(-c2cc(=O)c3ccccc3o2)c1N [PD98059]
- effect on VEGF-induced CTGF mRNA expression ([2]; VEGF 25 ng/ml 6 h): Neither GF 109203X nor PD98059 had significant effects

Molecule: COC[C@H]1OC(=O)c2coc3c2[C@@]1(C)C1=C(C3=O)[C@@H]2CCC(=O)[C@@]2(C)C[C@H]1OC(C)=O [wortmannin]
- inhibition of the effects of VEGF on CTGF mRNA expression [1, 11]: 88±6.5%
- inhibition of the effects of VEGF on CTGF mRNA expression [2, 11]: 78±22%

Molecule: TGF-β1: transforming growth factor-β1, from R & D Systems
- CTGF mRNA levels increase (comparative study) (CTGF mRNA [3]): 3.3±0.5 fold
- CTGF protein expression increase (CTGF protein [4]): 2.8±0.8 fold

Molecule: VEGF
- CTGF mRNA levels, maximum increase (CTGF mRNA [3]; 25 ng/ml, after 6 h): 3.1±0.70 fold
- concentration of maximal increase of CTGF mRNA (CTGF mRNA [3]; 6 h of stimulation): 25 ng/mL
- lowest concentration with significant increase of CTGF mRNA (CTGF mRNA [3]; 6 h of stimulation): 0.25 ng/mL
- CTGF mRNA increase with cycloheximide, compared with cycloheximide alone (CTGF mRNA [3]; [12]): 2.4±0.41 fold
- CTGF mRNA levels increase (comparative study) (CTGF mRNA [3]): 3.0±0.3 fold
- CTGF mRNA levels, maximum increase (CTGF mRNA [5]): 2.0±0.22 fold
- concentration of maximal increase of CTGF mRNA (CTGF mRNA [5]; 6 h of stimulation): 25 ng/mL
- lowest concentration with significant increase of CTGF mRNA (CTGF mRNA [5]; 6 h of stimulation): 0.25 ng/mL
- CTGF mRNA increase with cycloheximide, compared with cycloheximide alone (CTGF mRNA [5]; [12]): 2.5±0.40 fold
- level of CTGF protein (CTGF protein [4]; 25 ng/ml, after 10 h): increased
- CTGF protein expression increase (CTGF protein [4]): 2.5±0.4 fold
- phosphorylation of Akt (Akt; BREC): 3.1 fold
- phosphorylation of Akt (Akt; BRPC): 2.6 fold
- level of CTGF protein (CTGF protein [6]): increased
- phosphorylation of Erk (Erk; BREC): 5.8 fold
- Erk phosphorylation (Erk; BRPC): No effect
- interactions of KDR and p85 subunit of PI3-kinase (KDR): promoted
- tyrosine phosphorylation of KDR (KDR): promoted
- interactions of Flt1 and p85 subunit of PI3-kinase (Flt1 [7]): increased
- tyrosine phosphorylation of Flt1 (Flt1 [7]): increased
- Kd (Flt1 [8]): 0.01 to 0.1 nM

Molecule: Vascular endothelial growth factor (VEGF) (ligand)
- CTGF mRNA (Northern blot, BRPC, 25 ng/ml VEGF, maximum after 9 h) (Flt1 (VEGFR1) (bovine)): 2 fold
- CTGF mRNA (Northern blot, BREC, 25 ng/ml VEGF, maximum after 6 h) [9]: 3.1 fold

Molecule: placenta growth factor (P1GF) (ligand)
- CTGF mRNA (Northern blot, BRPC, 25 ng/ml P1GF, peak after 9 h) (Flt1 (VEGFR1) (bovine)): 1.9 fold

B1: P1GF: placenta growth factor, a Flt1 receptor-specific ligand, from R & D Systems (protein, UniProt P49763 19-221, looked up)
Placenta growth factor: LPAVPPQQWALSAGNGSSEVEVVPFQEVWGRSYCRALERLVDVVSEYPSEVEHMFSPSCVSLLRCTGCCGDENLHCVPVETANVTMQLLKIRSGDRPSYVELTFSQHVRCECRHSPGRQSPDMPGDFRADAPSFLPPRRSLPMLFRMEWGCALTGSQSAVWPSSPVPEEIPRMHPGRNGKKQQRKPLREKMKPERCGDAVPRR
- CTGF mRNA levels after stimulation (CTGF mRNA [3]; 25 ng/ml): not affected
- CTGF mRNA levels, maximum increase (CTGF mRNA [5]): 1.9±0.30 fold
- interactions of KDR and p85 subunit of PI3-kinase (KDR): not
- tyrosine phosphorylation of KDR (KDR): not
- interactions of Flt1 and p85 subunit of PI3-kinase (Flt1 [7]): increased
- tyrosine phosphorylation of Flt1 (Flt1 [7]): increased
